{"source": "patent US20090233942A1", "about": "“Genetic markers associated with response to antidepressants” (priority 2008, published 2009)", "test_system": "beagle dogs", "assay": "Pre-clinical study in beagle dogs", "type": "in vivo, dog", "data": [{"smiles": "Cl.N#Cc1ccc2[nH]cc(CCCCN3CCN(c4ccc5oc(C(N)=O)cc5c4)CC3)c2c1", "note": "[Vilazodone, 5-{4-[4-(5-Cyano-3-indolyl)-butyl]-1-piperazinyl}-benzofuran-2-carboxamide hydrochloride]", "values": [{"measurement": "ocular findings", "value": "treatment emergent corneal opacities and reduced tear production"}]}]}
